Test results taken from paper PMC11284790, “Targeting Myeloperoxidase Ameliorates Gouty Arthritis: A Virtual Screening Success Story” (Journal of Medicinal Chemistry, 2024).

Key:
Human leukocyte MPO [1] = target: T1, Human leukocyte MPO (Homo sapiens, UniProt P05164); test: MPO chlorinating activity assay (taurine chloramine/TMB); assay type: biochemical; set-up: Human leukocyte MPO (EC 1.7.1.11) was purchased from Planta Natural Products; purchased Planta Natural Products (Vienna, Austria); host or cells: human leukocytes; conditions: for chlorinating/peroxidatic activity inhibition ratio: ratio of % inhibition at 20 μM, ~1 indicates true enzyme inhibitor
Procedure: Chlorinating activity was carried out in phosphate buffer (20 mM, pH 7.4). Compounds (20 μM) were dissolved in 0.03% DMSO, MPO (10 nM), diethylenetriaminepentaacetic acid (100 μM), cetyltrimethylammonium chloride (0.03%), NaCl (140 mM), and taurine (5 mM).[31] This mixture was incubated at 37 °C for 15 min before adding 40 μM hydrogen peroxide. The reaction ran for 8 min and was then stopped by catalase (20 μg/mL). Oxidation of TMB (2 mM) (3,3,5,5-tetramethylbenzidine) by taurine chloroamine catalyzed by iodide (100 μM) was quantified at 650 nm.[33] Results were expressed as a percentage of the control (vehicle). IC50 was calculated by nonlinear regression using the Hill equation present in GraphPad Prism 5 software.

Human leukocyte MPO [2] = target: T1, Human leukocyte MPO; test: MPO peroxidatic activity assay (AmplexRed oxidation); assay type: biochemical; set-up: Human leukocyte MPO (EC 1.7.1.11) was purchased from Planta Natural Products; purchased Planta Natural Products (Vienna, Austria); host or cells: human leukocytes
Procedure: MPO peroxidase activity was kinetically monitored using the artificial peroxidase substrate AmplexRed, which is oxidized to resorufin and can be detected by fluorescence.[34] Reactions were carried out in phosphate buffer (50 mM, pH 7.4), MPO (100 pM), cetyltrimethylammonium chloride (0.03%), diethylenetriaminepentaacetic acid (100 μM), AmplexRed (30 μM), and compounds (20 μM in 0.3% DMSO). The reaction was started by adding 2 μM hydrogen peroxide. The reaction product was assessed by fluorescence at λex = 530 and λem = 580 nm. The initial velocity was calculated by the slope of the linear regression in the first minutes of reaction. Inhibition is represented as a percentage of the control (vehicle).

[3] = Taurine chloroamine scavenger assay; conditions: 15 min at 37 °C, TMB readout
Procedure: Taurine chloramine was prepared by mixing hypochlorous acid (2.81 mM) with taurine (5 mM), cetyltrimethylammonium chloride (0.03%), NaCl (140 mM), and diethylenetriaminepentaacetic acid (100 μM) in phosphate buffer (20 mM, pH 7.4). The system was kept at 37 °C for 5 min for complete chloramine taurine formation. The compounds were added to this mixture and incubated for 15 min at 37 °C. Taurine chloramine was quantified by the oxidation of TMB (2 mM) catalyzed by iodide (100 μM).[33]

[4] = 20 μM compound, 10 nM MPO, 140 mM NaCl, 5 mM taurine, 40 μM H2O2, pH 7.4, read-out: % Inhibition (at 20 μM) Chlorinating
[5] = supplementary csv copy of Table 1, read-out: % Inhibition (Chlorinating)
[6] = 20 μM compound, 100 pM MPO, 30 μM AmplexRed, 2 μM H2O2, pH 7.4, read-out: % Inhibition (at 20 μM) Peroxidatic
[7] = supplementary csv copy of Table 1, read-out: % Inhibition (Peroxidatic)
[8] = 20 μM compound, 10 nM MPO, 140 mM NaCl, 5 mM taurine, 40 μM H2O2, pH 7.4
[9] = supplementary csv copy of Table 1
[10] = 20 μM compound, 100 pM MPO, 30 μM AmplexRed, 2 μM H2O2, pH 7.4

T1 sequence (P05164 279-745 limits assumed): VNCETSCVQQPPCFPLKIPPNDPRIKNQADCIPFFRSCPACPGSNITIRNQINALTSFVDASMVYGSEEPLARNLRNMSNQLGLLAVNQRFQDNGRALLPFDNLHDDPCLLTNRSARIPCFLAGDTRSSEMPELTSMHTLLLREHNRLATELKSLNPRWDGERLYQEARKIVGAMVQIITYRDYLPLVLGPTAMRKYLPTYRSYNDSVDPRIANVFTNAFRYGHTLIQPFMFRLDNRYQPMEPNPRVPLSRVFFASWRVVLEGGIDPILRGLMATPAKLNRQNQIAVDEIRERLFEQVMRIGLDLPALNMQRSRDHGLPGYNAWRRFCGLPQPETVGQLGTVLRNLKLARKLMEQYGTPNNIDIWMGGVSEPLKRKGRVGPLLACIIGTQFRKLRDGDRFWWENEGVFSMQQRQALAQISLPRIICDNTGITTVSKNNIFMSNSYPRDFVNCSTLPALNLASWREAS
T1 sequence (P05164 165-278 limits assumed): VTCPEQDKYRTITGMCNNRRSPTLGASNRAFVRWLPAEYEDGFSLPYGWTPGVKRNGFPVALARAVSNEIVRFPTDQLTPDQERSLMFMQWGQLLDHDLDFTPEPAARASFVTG

Compound	inhibition at 20 µM (Human leukocyte MPO [1]; [4])	inhibition at 20 µM (Human leukocyte MPO [1]; [5])	inhibition at 20 µM (Human leukocyte MPO [2]; [6])	inhibition at 20 µM (Human leukocyte MPO [2]; [7])	chlorinating/peroxidatic activity inhibition ratio (Human leukocyte MPO [1])	% Inhibition (at 20 μM) Chlorinating (Human leukocyte MPO [1]; [8])	% Inhibition (Chlorinating) (Human leukocyte MPO [1]; [9])	% Inhibition (Peroxidatic) (Human leukocyte MPO [2]; [9])	IC50 (Human leukocyte MPO [1]; 10 nM MPO, 140 mM NaCl, pH 7.4)	% Inhibition (at 20 μM) Peroxidatic (Human leukocyte MPO [2]; [10])	scavenger activity toward taurine chloramine [3]
CC1=Nc2ccc(Cl)cc2-c2[nH]c3ccccc3c2N1 [RL1]	50.2 ± 4%	50.2 ± 4%	81 ± 15.1%	81 ± 15.1%	–	–	–	–	–	–	–
CC1CCc2sc3c(c2C1)c1ncnn1c1nnc(S)n31 (stereo not shown) [RL9]	92 ± 3.2%	92 ± 3.2%	42.1 ± 7.9%	42.1 ± 7.9%	high	–	–	–	–	–	–
COc1cc(/C=N/NC(=O)c2ccoc2C)ccc1OCCN1CCCCC1 [RL15]	–	–	–	–	–	INACTIVE	INACTIVE	–	–	–	–
CCOC(=O)C(Cc1ccc(O)cc1)NC1=CC(=O)C(=O)c2ccccc21 (stereo not shown) [RL16]	–	–	67.1 ± 8.1%	67.1 ± 8.1%	–	INACTIVE	INACTIVE	–	–	inhibited exclusively the peroxidatic assay	–
N#CC1=C(N)Oc2c(c(=O)sc3ccccc23)C1c1ccc(F)cc1 (stereo not shown) [RL20]	–	–	34 ± 4.3%	34 ± 4.3%	–	INACTIVE	INACTIVE	–	–	inhibited exclusively the peroxidatic assay	–
CCc1n[nH]c2c1C(c1ccc(O)c(OC)c1)C(C#N)=C(N)O2 (stereo not shown) [RL23]	57.8 ± 13.9%	57.8 ± 13.9%	25.1 ± 3.2%	25.1 ± 3.2%	–	–	–	–	–	–	–
CC1CCCc2sc3nc(S)n(N)c(=O)c3c21 (stereo not shown) [RL27]	18.6 ± 1.6%	18.6 ± 1.6%	29.5 ± 2.9%	29.5 ± 2.9%	–	–	–	–	–	–	–
CCCNc1ncnc2cc(-c3ccc(OC)cc3)sc12 [RL28]	–	–	–	–	–	INACTIVE	INACTIVE	INACTIVE	–	INACTIVE	–

Second part, led by results:

inhibition at 20 µM (Human leukocyte MPO [1]; [4])	inhibition at 20 µM (Human leukocyte MPO [1]; [5])	inhibition at 20 µM (Human leukocyte MPO [2]; [6])	inhibition at 20 µM (Human leukocyte MPO [2]; [7])	chlorinating/peroxidatic activity inhibition ratio (Human leukocyte MPO [1])	% Inhibition (at 20 μM) Chlorinating (Human leukocyte MPO [1]; [8])	% Inhibition (Chlorinating) (Human leukocyte MPO [1]; [9])	% Inhibition (Peroxidatic) (Human leukocyte MPO [2]; [9])	IC50 (Human leukocyte MPO [1]; 10 nM MPO, 140 mM NaCl, pH 7.4)	Compound	% Inhibition (at 20 μM) Peroxidatic (Human leukocyte MPO [2]; [10])	scavenger activity toward taurine chloramine [3]
63 ± 6.2%	63 ± 6.2%	24 ± 4.1%	24 ± 4.1%	high	–	–	–	–	O=C1ON=C(c2ccccc2)/C1=C\c1cccc(O)c1 [RL17]	–	–
40.1 ± 5.5%	40.1 ± 5.5%	59.1 ± 2.9%	59.1 ± 2.9%	–	–	–	–	–	CCOC(=O)C1=C(N)Oc2cc(O)ccc2C1c1ccc(F)cc1F (stereo not shown) [RL24]	–	–
–	–	–	–	–	INACTIVE	INACTIVE	INACTIVE	–	O=c1c2cnc3cc(C(F)(F)F)ccc3c2sc2nncn12 [RL25]	INACTIVE	–
81 ± 5.8%	81 ± 5.8%	78.7 ± 4.2%	78.7 ± 4.2%	–	–	–	–	12.6 µM	CCCOc1ccc(C2C(C#N)=C(N)SC(N)=C2C#N)cc1OC [RL26]	–	decreased both taurine chloroamine
